According to article PMC12647918 (Nature Communications, 2025):

Assays:
[1] = test system: RNA post-transcriptional modification enzymes (PUS1, PUS3, PUS10, TRUB1, TRUB2, DUS3L, TRMT2A, EMG1); experiment: Time-resolved SICFA, 5-FU in K562 cells; type: cell-based, Human; settings: 50 µM 5-FU, from 4 h, further enhanced with prolonged treatment
TYMS [2] = molecular target: T1, TYMS (Homo sapiens, UniProt P04818); experiment: Time-resolved SICFA, 5-FU in K562 cells; settings: 50 µM 5-FU, 30 min, 10% fixative
T1 sequence (P04818 2-313 limits assumed): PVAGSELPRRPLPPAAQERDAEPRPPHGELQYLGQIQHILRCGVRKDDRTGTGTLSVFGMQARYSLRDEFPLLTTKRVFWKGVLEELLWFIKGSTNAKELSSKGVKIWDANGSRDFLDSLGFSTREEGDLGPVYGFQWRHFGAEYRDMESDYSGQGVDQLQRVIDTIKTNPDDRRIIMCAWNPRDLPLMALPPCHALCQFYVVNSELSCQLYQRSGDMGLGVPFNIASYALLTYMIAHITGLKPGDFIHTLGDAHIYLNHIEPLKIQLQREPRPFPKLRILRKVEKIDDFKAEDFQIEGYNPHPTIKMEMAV

tRNA modifications = experiment: Measurement of tRNA modification levels by LC-MS/MS; type: cell-based, Human; settings: K562 cells, 50 μM 5-FU
[3] = test system: C-1-tetrahydrofolate synthase (MTHFD1); experiment: SICFA of MTX-treated living K562 cells; type: cell-based, Human; settings: 2 µM MTX, 30 min
[4] = test system: Methionine synthase (MTR); experiment: SICFA of MTX-treated living K562 cells; type: cell-based, Human; settings: 2 µM MTX, 30 min
HDAC2 = HDAC2 (Homo sapiens, UniProt Q92769); settings: both methods (SICFA and PISA10)
HDAC2, sequence (Q92769 whole entry): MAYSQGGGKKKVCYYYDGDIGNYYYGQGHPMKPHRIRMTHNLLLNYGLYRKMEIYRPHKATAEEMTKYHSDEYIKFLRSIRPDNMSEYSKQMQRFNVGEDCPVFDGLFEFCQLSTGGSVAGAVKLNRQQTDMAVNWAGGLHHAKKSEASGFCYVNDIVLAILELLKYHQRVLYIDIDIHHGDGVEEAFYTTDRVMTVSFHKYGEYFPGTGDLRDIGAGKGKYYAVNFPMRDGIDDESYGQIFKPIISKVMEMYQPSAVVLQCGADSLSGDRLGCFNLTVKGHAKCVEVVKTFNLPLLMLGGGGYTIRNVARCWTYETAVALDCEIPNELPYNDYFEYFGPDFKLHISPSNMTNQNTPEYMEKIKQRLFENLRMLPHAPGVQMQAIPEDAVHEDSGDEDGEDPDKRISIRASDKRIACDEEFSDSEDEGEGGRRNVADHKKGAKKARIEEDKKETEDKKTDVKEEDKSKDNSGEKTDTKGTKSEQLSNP

HDAC6 = molecular target: T2, HDAC6 (Homo sapiens, UniProt Q9UBN7); experiment: SICFA and PISA10 stability shift, Panobinostat; settings: both methods (SICFA and PISA10)
T2 sequence (Q9UBN7 1-1215): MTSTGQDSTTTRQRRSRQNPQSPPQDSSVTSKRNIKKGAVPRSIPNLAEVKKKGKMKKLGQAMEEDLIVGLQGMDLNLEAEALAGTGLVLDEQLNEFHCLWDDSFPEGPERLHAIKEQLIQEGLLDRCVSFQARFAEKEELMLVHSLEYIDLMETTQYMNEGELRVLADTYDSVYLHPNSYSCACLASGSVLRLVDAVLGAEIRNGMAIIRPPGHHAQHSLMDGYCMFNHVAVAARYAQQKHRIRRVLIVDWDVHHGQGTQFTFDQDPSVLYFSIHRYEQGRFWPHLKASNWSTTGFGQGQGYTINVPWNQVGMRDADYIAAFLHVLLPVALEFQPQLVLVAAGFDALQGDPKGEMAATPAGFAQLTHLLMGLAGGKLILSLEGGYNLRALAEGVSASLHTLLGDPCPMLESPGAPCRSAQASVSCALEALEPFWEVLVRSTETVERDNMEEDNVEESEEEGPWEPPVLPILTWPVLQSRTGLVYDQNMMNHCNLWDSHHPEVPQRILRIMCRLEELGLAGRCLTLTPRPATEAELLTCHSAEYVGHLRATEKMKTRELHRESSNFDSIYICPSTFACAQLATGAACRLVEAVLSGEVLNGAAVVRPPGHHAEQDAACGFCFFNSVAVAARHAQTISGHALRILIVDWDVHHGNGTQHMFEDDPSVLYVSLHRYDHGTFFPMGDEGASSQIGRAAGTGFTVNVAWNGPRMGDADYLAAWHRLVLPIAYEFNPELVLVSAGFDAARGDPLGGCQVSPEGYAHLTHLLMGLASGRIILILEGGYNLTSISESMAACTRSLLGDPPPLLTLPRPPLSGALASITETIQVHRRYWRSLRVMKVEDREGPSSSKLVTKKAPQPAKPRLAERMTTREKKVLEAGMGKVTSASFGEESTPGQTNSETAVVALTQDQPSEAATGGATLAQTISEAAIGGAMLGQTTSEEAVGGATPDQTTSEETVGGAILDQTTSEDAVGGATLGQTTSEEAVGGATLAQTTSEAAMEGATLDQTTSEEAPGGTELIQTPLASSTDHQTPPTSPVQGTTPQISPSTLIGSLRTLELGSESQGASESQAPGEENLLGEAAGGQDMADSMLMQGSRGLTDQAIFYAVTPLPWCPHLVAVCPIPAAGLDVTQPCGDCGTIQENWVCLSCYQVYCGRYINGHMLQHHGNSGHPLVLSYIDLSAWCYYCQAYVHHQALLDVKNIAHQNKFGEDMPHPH

HDAC3 = HDAC3 (Homo sapiens, UniProt O15379); experiment: SICFA and PISA10 stability shift, Panobinostat; settings: SICFA versus PISA10
HDAC3, sequence (O15379 whole entry): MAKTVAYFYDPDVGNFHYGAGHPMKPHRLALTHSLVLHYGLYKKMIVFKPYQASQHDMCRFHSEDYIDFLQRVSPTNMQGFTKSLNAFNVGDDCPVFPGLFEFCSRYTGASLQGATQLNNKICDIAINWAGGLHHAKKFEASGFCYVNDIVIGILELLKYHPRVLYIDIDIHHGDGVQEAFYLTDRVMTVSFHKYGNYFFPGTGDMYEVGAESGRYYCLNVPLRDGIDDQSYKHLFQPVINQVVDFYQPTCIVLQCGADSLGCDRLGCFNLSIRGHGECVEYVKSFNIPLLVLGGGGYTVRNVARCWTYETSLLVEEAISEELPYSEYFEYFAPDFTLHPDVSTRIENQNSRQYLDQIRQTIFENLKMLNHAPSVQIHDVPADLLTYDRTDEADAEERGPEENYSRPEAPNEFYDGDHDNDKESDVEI
HDAC3, sequence (Q9Y618 389-480 partner limits assumed): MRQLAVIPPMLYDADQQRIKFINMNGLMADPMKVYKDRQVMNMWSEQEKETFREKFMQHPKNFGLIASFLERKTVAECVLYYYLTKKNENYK

HDAC8 = molecular target: T3, HDAC8 (Homo sapiens, UniProt Q9BY41); experiment: SICFA and PISA10 stability shift, Panobinostat; settings: SICFA versus PISA10
T3 sequence (Q9BY41 1-377): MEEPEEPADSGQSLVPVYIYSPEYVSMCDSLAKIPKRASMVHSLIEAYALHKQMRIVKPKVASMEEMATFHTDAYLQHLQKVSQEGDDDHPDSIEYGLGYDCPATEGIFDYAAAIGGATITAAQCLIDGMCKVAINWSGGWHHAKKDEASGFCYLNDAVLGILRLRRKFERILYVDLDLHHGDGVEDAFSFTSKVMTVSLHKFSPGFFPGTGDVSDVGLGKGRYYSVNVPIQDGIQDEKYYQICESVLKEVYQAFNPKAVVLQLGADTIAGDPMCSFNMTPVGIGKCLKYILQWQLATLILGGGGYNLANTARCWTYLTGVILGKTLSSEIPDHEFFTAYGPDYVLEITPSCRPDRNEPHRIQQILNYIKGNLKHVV

RB1 = experiment: SICFA stability shift, SNS-032
LYN = settings: 1 µM dasatinib, cell lysate, kinobeads ref 26; cited from earlier work
YES1 = settings: 1 µM dasatinib, cell lysate, kinobeads ref 26; cited from earlier work
RIPK2 = settings: 1 µM dasatinib, cell lysate, kinobeads ref 26; cited from earlier work
CDKN1C = experiment: SICFA target identification, dasatinib; type: cell-based, Human; settings: dasatinib 1 μM, 30 min
TYMS [5] = molecular target: T1, TYMS; settings: raltitrexed 1 µM, 30 min

O=c1[nH]cc(F)c(=O)[nH]1 [5-FU, 5-Fluorouracil]
stability of RNA post-transcriptional modification enzymes [1]: significantly increased | TYMS stability, log2FC (TYMS [2]): 2.11 | changes in RNA (tRNA) modifications (tRNA modifications; 4 h): no significant changes | tRNA modifications Ψ, ncm5U, hm5C, m5U (tRNA modifications; 24 h): significantly downregulated

CN(Cc1cnc2nc(N)nc(N)c2n1)c1ccc(C(=O)N[C@@H](CCC(=O)O)C(=O)O)cc1 [MTX, Methotrexate]
MTHFD1 stability [3]: increased stability | MTR stability, log2FC [4]: −0.38

Cc1[nH]c2ccccc2c1CCNCc1ccc(/C=C/C(=O)NO)cc1 [Panobinostat]
HDAC2 stability (HDAC2): consistent stabilization | HDAC6 stability (HDAC6): consistent stabilization | HDAC3 stability (HDAC3): opposite trends | HDAC8 target identification (HDAC8): uniquely identified by SICFA

CC(C)(C)c1cnc(CSc2cnc(NC(=O)C3CCNCC3)s2)o1 [SNS-032]
stability shift of substrate RB1, log2FC (RB1): > 0.5

Cc1nc(Nc2ncc(C(=O)Nc3c(C)cccc3Cl)s2)cc(N2CCN(CCO)CC2)n1 [dasatinib, Dasatinib]
reduction in binding (LYN): more than 50% | reduction in binding (YES1): more than 50% | reduction in binding (RIPK2): more than 50% | stability of LYN's interacting partner CDKN1C (CDKN1C): reduced the stability

Cc1nc2ccc(CN(C)c3ccc(C(=O)N[C@@H](CCC(=O)O)C(=O)O)s3)cc2c(=O)[nH]1 [raltitrexed, Raltitrexed]
soluble TYMS content vs control (western blot) (TYMS [5]; Jurkat cells, 10% and 12% fixative): markedly higher | target identification by SICFA LC-MS/MS (TYMS [5]; 10% fixative, pool of 5,534 proteins): leading candidate target
